Columns and labels:
[1] = Metabolic stability in human liver microsomes assessed as parent compound disappearance by measuring half life at 0.5 uM in presence of NADPH by LC-MS/MS analysis; assay type: ADME, Microsome
[2] = test system: Human immunodeficiency virus 1; test: Antiviral activity against recombinant HIV1 NLRep-Rluc harbouring polymorphic T124/T125 integrase infected in human MT-2 cells assessed as inhibition of virus growth in presence of fetal bovine serum by measuring luciferase activity after 4 days; assay type: functional, organism-based; conditions: Human immunodeficiency virus 1, NLRep, MT2, 96 h
[3] = Toxicity in human Huh-7 cells assessed as fold change in lipid droplet count at 10 uM incubated for 48 hrs by plate reader assay; assay type: cell-based; conditions: huh-7, 48 h
[4] = Toxicity in rat Hepatoma cell line assessed as fold change in lipid droplet count at 10 uM incubated for 48 hrs by plate reader assay; assay type: cell-based
[5] = test system: Human immunodeficiency virus 1; test: Antiviral activity against recombinant HIV1 NLRep-Rluc harbouring polymorphic N124/A125 integrase infected in human MT-2 cells assessed as inhibition of virus growth in presence of fetal bovine serum by measuring luciferase activity after 4 days; assay type: functional, organism-based; conditions: Human immunodeficiency virus 1, NLRep, MT2, 96 h
[6] = Cytotoxicity against human MT2 cells; assay type: toxicity, cell-based
Hepatoma cell line = test: Cytotoxicity against rat Hepatoma cell line at 40 to 80 uM; assay type: toxicity, cell-based; conditions: dose 40-80 µM
[7] = AUC (0 to infinity) in cynomolgus monkey at 2 mg/kg, po by LC-MS/MS analysis; assay type: ADME, organism-based, Macaca fascicularis; parameters: time infinity, dose 2 mg/kg, route po; conditions: in vivo
[8] = Oral bioavailability in Sprague-Dawley rat at 5 mg/kg by LC-MS/MS analysis; assay type: ADME, organism-based; conditions: in vivo
[9] = Clearance in Beagle dog at 1 mg/kg, iv by LC-MS/MS analysis; assay type: ADME, organism-based, Canis lupus familiaris; conditions: in vivo
[10] = test system: Human immunodeficiency virus 1; test: Antiviral activity against recombinant HIV1 NLRep-Rluc harbouring polymorphic A124/T125 integrase infected in human MT-2 cells assessed as inhibition of virus growth in presence of fetal bovine serum by measuring luciferase activity after 4 days; assay type: functional, organism-based; conditions: Human immunodeficiency virus 1, NLRep, MT2, 96 h
[11] = Oral bioavailability in cynomolgus monkey at 2 mg/kg by LC-MS/MS analysis; assay type: ADME, organism-based, Macaca fascicularis; conditions: in vivo
[12] = Oral bioavailability in CD-1 mouse at 5 mg/kg by LC-MS/MS analysis; assay type: ADME, organism-based; conditions: in vivo
[13] = AUC (0 to infinity) in Beagle dog at 2 mg/kg, po by LC-MS/MS analysis; assay type: ADME, organism-based, Canis lupus familiaris; parameters: time infinity, dose 2 mg/kg, route po; conditions: in vivo
[14] = AUC (0 to infinity) in Sprague-Dawley rat at 5 mg/kg, po by LC-MS/MS analysis; assay type: ADME, organism-based; parameters: time infinity, dose 5 mg/kg, route po; conditions: in vivo
[15] = Toxicity in rat assessed as hepatocellular vacuolation at 200 mg/kg,po for 1 week; assay type: organism-based; conditions: in vivo, 168 h, time 1 weeks
[16] = Clearance in cynomolgus monkey at 1 mg/kg, iv by LC-MS/MS analysis; assay type: ADME, organism-based, Macaca fascicularis; conditions: in vivo
[17] = test system: Human immunodeficiency virus 1; test: Antiviral activity against recombinant HIV1 NLRep-Rluc harbouring polymorphic N124/T125 integrase infected in human MT-2 cells assessed as inhibition of virus growth in presence of fetal bovine serum by measuring luciferase activity after 4 days; assay type: functional, organism-based; conditions: Human immunodeficiency virus 1, NLRep, MT2, 96 h
[18] = Clearance in Sprague-Dawley rat at 1 mg/kg, iv by LC-MS/MS analysis; assay type: ADME, organism-based; conditions: in vivo
[19] = test system: Human immunodeficiency virus 1; test: Antiviral activity against recombinant HIV1 NLRep-Rluc harbouring polymorphic T124/A125 integrase infected in human MT-2 cells assessed as inhibition of virus growth in presence of fetal bovine serum by measuring luciferase activity after 4 days; assay type: functional, organism-based; conditions: Human immunodeficiency virus 1, NLRep, MT2, 96 h
[20] = Oral bioavailability in Beagle dog at 2 mg/kg by LC-MS/MS analysis; assay type: ADME, organism-based, Canis lupus familiaris; conditions: in vivo
[21] = Cmax in rat at 50 mg/kg,po qd for 1 week; assay type: ADME, organism-based; parameters: time 1 weeks, dose 50 mg/kg, route po; conditions: in vivo
[22] = Clearance in CD-1 mouse at 1 mg/kg, iv by LC-MS/MS analysis; assay type: ADME, organism-based; conditions: in vivo
[23] = Toxicity in human Huh-7 cells assessed as fold change in lipid droplet count at 20 uM incubated for 48 hrs by plate reader assay; assay type: cell-based; conditions: hepatoma cell line
[24] = AUC (0 to infinity) in CD-1 mouse at 5 mg/kg, po by LC-MS/MS analysis; assay type: ADME, organism-based; parameters: time infinity, dose 5 mg/kg, route po; conditions: in vivo
[25] = AUC in rat at 50 mg/kg,po qd for 1 week; assay type: ADME, organism-based; parameters: dose 50 mg/kg, time 1 weeks, route po; conditions: in vivo, 168 h
[26] = test system: Human immunodeficiency virus 1; test: Antiviral activity against recombinant HIV1 NLRep-Rluc harbouring polymorphic T124/V125 integrase infected in human MT-2 cells assessed as inhibition of virus growth in presence of fetal bovine serum by measuring luciferase activity after 4 days; assay type: functional, organism-based; conditions: Human immunodeficiency virus 1, NLRep, MT2, 96 h
[27] = test system: Human immunodeficiency virus 1; test: Antiviral activity against recombinant HIV1 NLRep-Rluc harbouring polymorphic A124/A125 integrase infected in human MT-2 cells assessed as inhibition of virus growth in presence of fetal bovine serum by measuring luciferase activity after 4 days; assay type: functional, organism-based; conditions: Human immunodeficiency virus 1, NLRep, MT2, 96 h
Huh-7 = test: Cytotoxicity against human Huh-7 cells at 40 to 80 uM; assay type: toxicity, cell-based; conditions: huh-7, 80 µM, dose 40-80 µM
[28] = test system: Human immunodeficiency virus 1; test: Antiviral activity against recombinant HIV1 NLRep-Rluc harbouring polymorphic T124/T125 integrase infected in human MT-2 cells assessed as fold change in inhibition of virus growth in presence of fetal bovine serum by measuring luciferase activity after 4 days; assay type: functional; parameters: reference not given here; conditions: time 4 day
[29] = Toxicity in rat assessed as increase in alkaline phosphatase level at 50 mg/kg,po for 1 week; assay type: organism-based; conditions: in vivo, 168 h, time 1 weeks
[30] = Toxicity in dog assessed as increase in alkaline phosphatase level at 60 mg/kg,po for 1 week; assay type: organism-based, Canis lupus familiaris; conditions: in vivo, 168 h, time 1 weeks
[31] = Toxicity in rat assessed as hepatocellular vacuolation at 50 mg/kg,po for 1 week; assay type: organism-based; conditions: in vivo, 168 h, time 1 weeks
[32] = Toxicity in dog assessed as hepatocellular vacuolation at 60 mg/kg,po for 1 week; assay type: organism-based, Canis lupus familiaris; conditions: in vivo, 168 h, time 1 weeks

Cc1nc(C)c([C@H](OC(C)(C)C)C(=O)O)c(N2CCC(C)(C)CC2)c1-c1ccc(OCCc2ccc(F)cc2)cc1
half-life at 0.5 µM [1]: > 120 min
EC50 [2]: 1.7 nM
fold change (FC) [3]: 3.7
fold change (FC) [4]: 4
EC50 [5]: 3.8 nM
CC50 [6]: ≥ 22000 nM

Cc1ncc(-c2ccc(OCCc3ccc(F)cc3)cc2)c(N2CCC(C)(C)CC2)c1[C@H](OC(C)(C)C)C(=O)O
fold change (FC) [3]: 2.9
fold change (FC) [4]: 2.5

Cc1cccc(Cl)c1CN1CCc2cc(-c3c(C)nc(C)c([C@H](OC(C)(C)C)C(=O)O)c3N3CCC(C)(C)CC3)ccc2C1
Activity (Hepatoma cell line): Toxic
AUC(0-inf) [7]: 5.4 µM·h
bioavailability [8]: 35%
clearance [9]: 0.5 mL/min/kg
EC50 [10]: 5.8 nM
bioavailability [11]: 58%
bioavailability [12]: 72%
AUC(0-inf) [13]: 104 µM·h
EC50 [2]: 3.5 nM
AUC(0-inf) [14]: 14.9 µM·h
Activity [15]: Toxic
fold change (FC) [3]: 4.1
clearance [16]: 3.3 mL/min/kg
EC50 [17]: 5.8 nM
clearance [18]: 3.5 mL/min/kg
fold change (FC) [4]: 3.7
EC50 [19]: 5.4 nM
EC50 [5]: 7.5 nM
bioavailability [20]: 90%
CC50 [6]: 22500 nM
Cmax [21]: 32 µM
clearance [22]: 3.9 mL/min/kg
fold change (FC) [23]: 9.1
AUC(0-inf) [24]: 30.3 µM·h
AUC [25]: 335 µM·h
EC50 [26]: 3.2 nM
EC50 [27]: 6.5 nM
Activity (Huh-7): Toxic

Cc1nc(C)c([C@H](OC(C)(C)C)C(=O)O)c(N2CCC(C)(C)CC2)c1-c1ccc2c(c1)CC[C@@H](Cc1ccc(F)cc1)O2
fold change (FC) [28]: 5
EC50 [2]: 1.5 nM
EC50 [5]: 7.3 nM
CC50 [6]: ≥ 22000 nM

Cc1cccc(Cl)c1CN1CCc2cc(-c3cnc(C)c([C@H](OC(C)(C)C)C(=O)O)c3N3CCC(C)(C)CC3)ccc2C1
Activity [29]: Toxic
Activity (Hepatoma cell line): Toxic
AUC(0-inf) [7]: 10.7 µM·h
bioavailability [8]: 71%
clearance [9]: 2.2 mL/min/kg
EC50 [10]: 4.5 nM
bioavailability [11]: 51%
bioavailability [12]: 47%
AUC(0-inf) [13]: 24.2 µM·h
EC50 [2]: 2.8 nM
AUC(0-inf) [14]: 21.6 µM·h
fold change (FC) [3]: 1.2
clearance [16]: 1.7 mL/min/kg
EC50 [17]: 3.1 nM
clearance [18]: 3.8 mL/min/kg
fold change (FC) [4]: 1.8
EC50 [19]: 5 nM
Activity [30]: Toxic
EC50 [5]: 5.7 nM
bioavailability [20]: 89%
CC50 [6]: 19500 nM
Cmax [21]: 488 µM
Activity [31]: Toxic
clearance [22]: 1 mL/min/kg
fold change (FC) [23]: 3.7
AUC(0-inf) [24]: 43.1 µM·h
EC50 [26]: 1.6 nM
EC50 [27]: 4.6 nM
Activity (Huh-7): Toxic
Activity [32]: Toxic

Cc1nc(C)c([C@H](OC(C)(C)C)C(=O)O)c(N2CCC(C)(C)CC2)c1-c1cnn(CCCc2ccc(F)cc2)c1
fold change (FC) [28]: 4.8
half-life at 0.5 µM [1]: 34 min
EC50 [2]: 8.8 nM
CC50 [6]: ≥ 22000 nM

Cc1nc(C)c([C@H](OC(C)(C)C)C(=O)O)c(N2CCC(C)(C)CC2)c1-c1ccc2c(c1)CCN(c1nccc(-c3cnccn3)n1)C2
bioavailability [8]: 38%
EC50 [2]: 2.2 nM
AUC(0-inf) [14]: 23.7 µM·h
clearance [18]: 2.1 mL/min/kg
EC50 [5]: 7.9 nM
CC50 [6]: ≥ 17000 nM

Cc1nc(C)c([C@H](OC(C)(C)C)C(=O)O)c(N2CCC(C)(C)CC2)c1-c1ccc2c(c1)CCN(c1nc3cnccc3s1)C2
bioavailability [8]: > 100%
EC50 [2]: 1.5 nM
AUC(0-inf) [14]: 10.8 µM·h
clearance [18]: 14.8 mL/min/kg
EC50 [5]: 2.6 nM
CC50 [6]: ≥ 17000 nM

Cc1nc(C)c([C@H](OC(C)(C)C)C(=O)O)c(N2CCC(C)(C)CC2)c1-c1ccc2c(c1)CC[C@H](Cc1ccc(F)cc1)O2
fold change (FC) [28]: 5
EC50 [2]: 2.5 nM
EC50 [5]: 12.8 nM
CC50 [6]: ≥ 22000 nM
